How the values were obtained:
[1] = photochromic response rates on an optical bench (test squares); assay type: physicochemical; conditions: for ΔOD @ SATURATION: UV exposure continued for 20 minutes, same test squares; for ΔOD @ SATURATION / ΔOD/MIN SENSITIVITY: 75° F. (23.9° C.); for ΔOD/MIN SENSITIVITY: measured over first five seconds of UV exposure, expressed per minute, 1.5 x 10^-3 molal in BPA 2EO DMA / poly(ethyleneglycol) 600 dimethacrylate polymer; for Bleach Rate (T1/2): time for absorbance of activated form to reach one half the highest absorbance, room temperature (75° F., 23.9° C.), after removal of activating light
Protocol: Testing was done with the photochromic naphthopyrans of the Examples incorporated into polymeric samples by the following method. The quantity of naphthopyran calculated to yield a 1.5 time 10^-3 molal solution was added to a flask containing 50 grams of a monomer blend of 4 parts ethoxylated bisphenol A dimethacrylate (BPA 2EO DMA), 1 part poly(ethyleneglycol) 600 dimethacrylate, and 0.033 weight percent 2,2'-azobis (2-methyl propionitrile) (AIBN). The naphthopyran was dissolved into the monomer blend by stirring and gentle heating, if necessary. After a clear solution was obtained, it was poured into a flat sheet mold having the interior dimensions of 2.2 mm×6 inches (15.24 cm)×6 inches (15.24 cm). The mold was sealed and placed in a horizontal air flow, programmable oven set to increase the temperature from 40° C. to 95° C. over a 5 hour interval, hold the temperature at 95° C. for 3 hours and then lower it to 60° C. for at least 2 hours before the end of the curing cycle. After the mold was opened, the polymer sheet was cut using a diamond blade saw into 2 inch (5.1 centimeters) test squares.
The photochromic test squares prepared in Part A were tested for photochromic response rates on an optical bench. […] The bench was fitted with a 150 watt Xenon arc lamp, a remote controlled shutter, a copper sulfate bath acting as a heat sink for the arc lamp, a Schott WG-320 nm cut-off filter which removes short wavelength radiation; neutral density filter(s) and a sample holder in which the square to be tested was inserted. A collimated beam of light from a tungsten lamp was passed through the square at a small angle normal to the square. After passing through the square, the light from the tungsten lamp was directed through a photopic filter attached to a detector. The photopic filter passes wavelengths such that the detector mimics the response of the human eye. The output signals from the detector(s) were processed by a radiometer.
Change in optical density (ΔOD) was determined by inserting a test square in the bleached state into the sample holder, adjusting the transmittance scale to 100%, opening the shutter from the Xenon lamp to provide ultraviolet radiation to change the test square from the bleached state to an activated (i.e., darkened) state, measuring the transmittance in the activated state; and calculating the change in optical density according to the formula Δ OD=log(100/%Ta) where %Ta is the percent transmittance in the activated state and the logarithm is to the base 10.
(§1) The Δ OD/Min, which represents the sensitivity of the photochromic compound's response to UV light, was measured over the first five (5) seconds of UV exposure, then expressed on a per minute basis. The saturation optical density (OD) was taken under identical conditions as the Δ OD/Min, except UV exposure was continued for 20 minutes for the examples in Table 1. The lambda max reported in Table 1 is the wavelength in the visible spectrum at which the maximum absorption of the activated (colored) form of the photochromic compound in a diethylene glycol bis(allyl carbonate) composition occurs.

[2] = lambda max of the activated (colored) form in the visible spectrum; assay type: physicochemical; conditions: activated form in a diethylene glycol bis(allyl carbonate) composition
Protocol: as §1, with “occurs. The Bleach Rate (T 1/2) is the time interval in seconds for the absorbance of the activated form of the naphthopyran in the test squares to reach one half the highest absorbance at room temperature (75° F., 23.9° C.) after removal of the source of activating light.” for “occurs.”

Row | Structure (SMILES) | ΔOD @ SATURATION [1] | ΔOD/MIN SENSITIVITY [1] | Bleach Rate (T1/2) [1] [min] | LAMBDA MAX (VISIBLE) [2] [nm]
1 | COc1ccc(C2(c3ccc(OC)cc3)C=Cc3c(-c4cccn4C)c(OC(C)=O)c4ccccc4c3O2)cc1 [Example 1, 2,2-bis(4-methoxyphenyl)-5-(N-methylpyrrol-2-yl)-6-acetoxy-2H-naphtho[1,2-b]pyran] | 0.25 | 0.16 ΔOD/MIN | 1.23 | 513
2 | COc1ccc(C2(c3ccc(OC)cc3)C=Cc3c(-c4ccc(OC)cc4OC)c(OC(C)=O)c4ccccc4c3O2)cc1 [Example 2, 2,2-bis(4-methoxyphenyl)-5-(2,4-dimethoxyphenyl)-6-acetoxy-2H-naphtho[1,2-b]pyran] | 0.55 | 0.15 ΔOD/MIN | 4.13 | 511
3 | COc1ccc(C2(c3ccc(OC)cc3)C=Cc3c(Sc4ccccc4)c(O)c4ccccc4c3O2)cc1 [Example 3, 2,2-bis(4-methoxyphenyl)-5-phenylthio-6-hydroxy-2H-naphtho[1,2-b]pyran] | 1.76 | 0.34 ΔOD/MIN | > 10 | 516
4 | COc1ccc(C2(c3ccc(OC)cc3)C=Cc3c(Sc4ccccc4)c(OC(C)=O)c4ccccc4c3O2)cc1 [Example 4, 2,2-bis(4-methoxyphenyl)-5-phenylthio-6-acetoxy-2H-naphtho[1,2-b]pyran] | 0.23 | 0.22 ΔOD/MIN | 0.7 | 516
5 | COc1ccc(C2(c3ccc(OC)cc3)C=Cc3c(Cl)c(OC(C)=O)c4ccccc4c3O2)cc1 [Example 5, 2,2-bis(4-methoxyphenyl)-5-chloro-6-acetoxy-2H-naphtho[1,2-b]pyran] | 0.07 | 0.08 ΔOD/MIN | 0.9 | 462
6 | COc1ccc(C2(c3ccc(OC)cc3)C=Cc3c(C)c(OC(C)=O)c4ccccc4c3O2)cc1 [Example 6, 2,2-bis(4-methoxyphenyl)-5-methyl-6-acetoxy-2H-naphtho[1,2-b]pyran] | 0.37 | 0.14 ΔOD/MIN | 2 | 506
7 | Oc1c(Sc2ccccc2)c2c(c3ccccc13)OC1(C=C2)C2CC3CC(C2)CC1C3 (centres unmarked) [Example 7, 2,2'-spiroadamantylene-5-phenylthio-6-hydroxy-2H-naphtho[1,2-b]pyran] | 0.47 | 0.15 ΔOD/MIN | 3.08 | 462
8 | CC(=O)Oc1c(Sc2ccccc2)c2c(c3ccccc13)OC1(C=C2)C2CC3CC(C2)CC1C3 (centres unmarked) [Example 8, 2,2'-spiroadamantylene-5-phenylthio-6-acetoxy-2H-naphtho[1,2-b]pyran] | 0.04 | 0.10 ΔOD/MIN | 1.13 | 459
9 | COc1c(C)c2c(c3ccccc13)OC1(C=C2)C2CC3CC(C2)CC1C3 (centres unmarked) [Example 9, 2,2'-spiroadamantylene-5-methyl-6-methoxy-2H-naphtho[1,2-b]pyran] | 0.17 | 0.12 ΔOD/MIN | 2.55 | 462
10 | COc1ccc(C2(c3ccc(OC)cc3)C=Cc3c(C(O)(c4ccccc4)c4ccccc4)c(O)c4ccccc4c3O2)cc1 [Example 10, 2,2-bis (4-methoxyphenyl)-5-diphenylmethylol-6-hydroxy-2H-naphtho[1,2-b]pyran] | 0.32 | 0.05 ΔOD/MIN | > 13.3 | 482
11 | COc1ccc(C2(c3ccc(OC)cc3)C=Cc3c(C(O)(c4ccccc4)c4ccccc4)c(OC)c4ccccc4c3O2)cc1 [Example 11, 2,2-bis(4-methoxyphenyl)-5-diphenylmethylol-6-methoxy-[2H]-naphtho[1,2-b]pyran] | 0.19 | 0.10 ΔOD/MIN | 1.42 | 467

From patent US5658501A, “Substituted naphthopyrans” (Transitions Optical, Inc., priority 1995, dated 1997)
